# In patent US20100286139A1, “AMINO PYRAZOLE COMPOUND” (ELI LILLY AND COMPANY, priority 2008, published 2010):
# Target: T1, JAK2V617F (Homo sapiens, UniProt O60674, V617F)
# T1 construct: expressed in transfected cells; host or cells: Ba/F3 (murine pro-B) cells
# Assay: Ba/F3 JAK2V617F cell-based assay (Cellomics ArrayScan HCS)
# Set-up: species or system murine
# Conditions: Ba/F3 cells expressing JAK2V617F, 60 min compound incubation; read-out: relative IC50, inhibition of pSTAT5
# Source text: JAK2 target inhibition has been evaluated in Ba/F3 expressing JAK2 V617F by Western blot as reported in Wernig et al. (Wernig G, et al. Efficacy of TG101348, a selective JAK2 inhibitor, in treatment of a murine model of JAK2V617F-induced polycythemia vera, Cancer Cell, April; 13(4):311-20). A medium throughput Cellomics assay was established to evaluate the JAK2 target inhibition in Ba/F3 cells expressing JAK2V617F. This assay enables the discovery of an effective therapeutic agent to treat disorders associated with JAK2V617F mutation.
# Ba/F3 (murine pro-B) cells expressing JAK2V617F maintained in RPMI 1640 with 10% FBS, 0.07% sodium bicarbonate, 1 mM sodium pyruvate, 1× antibiotic/antimycotic (Invitrogen, Carlsbad, Calif.) and 0.45% glucose (Sigma, St Louis, Mo.). Cells are kept at 37° C. with 5% CO2. The test compound is prepared in 100% DMSO at 10 mM concentration. […]
# After cell treatment, 500 μL of 1% formaldehyde solution (made freshly with phosphate-buffered saline (PBS) and kept warm at 37° C.) is added to each well. […] An aliquot of 200 μL of 1 to 10 dilution of Mouse anti-pSTAT5 (pY694) Alexa Fluor 647® in fluorescence activated cell sorting (FACS) buffer is added to the cells. […] Mean fluorescent intensity data are collected and analyzed using Cellomics Arrayscan® VTi. […] The relative IC50 is calculated using a 4 parameter logistic curve fitting analysis with ActivityBase 4.0. […]
# T1 sequence (O60674 whole entry V617F): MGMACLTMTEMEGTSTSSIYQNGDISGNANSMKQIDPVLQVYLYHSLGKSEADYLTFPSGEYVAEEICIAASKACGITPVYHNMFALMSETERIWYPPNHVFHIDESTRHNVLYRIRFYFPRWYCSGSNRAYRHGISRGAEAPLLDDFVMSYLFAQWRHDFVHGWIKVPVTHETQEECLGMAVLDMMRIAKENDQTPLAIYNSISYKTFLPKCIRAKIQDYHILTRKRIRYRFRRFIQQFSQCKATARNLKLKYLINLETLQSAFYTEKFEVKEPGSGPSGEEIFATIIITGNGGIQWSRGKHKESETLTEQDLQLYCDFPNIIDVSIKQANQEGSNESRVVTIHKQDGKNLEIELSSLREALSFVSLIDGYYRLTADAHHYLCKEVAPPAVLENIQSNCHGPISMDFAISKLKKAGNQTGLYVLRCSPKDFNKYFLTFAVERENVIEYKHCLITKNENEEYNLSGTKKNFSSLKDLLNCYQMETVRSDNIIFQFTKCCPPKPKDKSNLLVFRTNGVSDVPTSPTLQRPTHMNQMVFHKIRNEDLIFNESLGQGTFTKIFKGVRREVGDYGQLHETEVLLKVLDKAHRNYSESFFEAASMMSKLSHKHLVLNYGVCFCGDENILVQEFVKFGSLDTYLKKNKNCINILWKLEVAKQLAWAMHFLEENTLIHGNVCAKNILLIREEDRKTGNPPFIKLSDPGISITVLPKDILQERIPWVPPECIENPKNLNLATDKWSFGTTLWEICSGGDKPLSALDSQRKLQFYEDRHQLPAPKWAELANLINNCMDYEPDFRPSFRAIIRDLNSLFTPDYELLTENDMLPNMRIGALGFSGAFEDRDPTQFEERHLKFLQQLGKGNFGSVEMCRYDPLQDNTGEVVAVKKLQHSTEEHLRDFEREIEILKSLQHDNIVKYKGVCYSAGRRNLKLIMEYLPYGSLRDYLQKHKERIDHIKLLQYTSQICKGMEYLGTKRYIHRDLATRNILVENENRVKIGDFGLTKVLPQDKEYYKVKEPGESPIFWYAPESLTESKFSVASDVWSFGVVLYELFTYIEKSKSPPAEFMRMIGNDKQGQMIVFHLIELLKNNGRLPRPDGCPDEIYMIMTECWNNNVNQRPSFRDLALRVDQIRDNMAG
structure (smiles),measurement,value
"Cc1cc(Nc2cc(CN3CCOCC3)c3nc(C)c(Cc4ccc(Cl)cc4F)n3n2)n[nH]1 [3-(4-Chloro-2-fluorobenzyl)-2-methyl-N-(5-methyl-1H-pyrazol-3-yl)-8-(morpholinomethyl)imidazo[1,2-b]pyridazin-6-amine]",IC50,30 nM
